Reference: PubChem BioAssay AID624333 (NMMLSC, 2012)
Calls of active or inactive are those of the source.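 Rule for the calls: active = inhibition of binding above 0%; inactive = the rest.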

Tested on: anti-Dsg3 scFv antibody binding to human desmoglein-3
Test: blockers of Dsg3 recognition by pemphigus scFv, confirmation, orthogonal assay for pemphigus antibody inhibitor project, biochemical, ELISA (AID 624333)
Settings: OD, at 200 µM, active compounds read high

Row | Compound | inhibition of binding
1 | Cc1ccc(C(C)C)c(OCC(=O)Nc2ccc(N3CCN(S(C)(=O)=O)CC3)cc2)c1 | -19% (inactive)
2 | CCOc1ccccc1NCc1cc(=O)oc2cc(C)c(O)cc12 | -4% (inactive)
3 | COc1cc(OC)cc(N(C(=O)C2COc3ccccc3O2)C(C(=O)NC2CCCCC2)c2ccc(O)cc2)c1 (centres undefined) | -3% (inactive)
4 | Cc1c(C(=O)Nc2ccc(OCc3ccccc3)cc2)cccc1[N+](=O)[O-] | -33% (inactive)
5 | CC(=O)Nc1ccc(-c2cc(-c3ccccc3)nc(-c3ccccc3)n2)cc1 | 5%
6 | COc1ccccc1NC(=O)Cn1nnc(-c2ccccc2NC(=O)c2cc3ccccc3oc2=O)n1 | -32% (inactive)
7 | Cn1c(SCC(=O)NC2CCCCC2)nnc1-c1cc2cc(Cl)ccc2o1 | 0% (inactive)
8 | OCc1cn(-c2ccccc2)nc1-c1ccc(-c2nn(-c3ccccc3)cc2CO)cc1 | -14% (inactive)
9 | NS(=O)(=O)c1ccc(NC(=O)c2cc(-c3cccs3)nc3ccccc23)cc1 | -18% (inactive)
10 | CSc1ccccc1OCc1cc(C(=O)NCCC2=CCCCC2)no1 | -14% (inactive)
11 | CC(C)OC(=O)CSc1nc2c(cc1C#N)CCCCC2 | -2% (inactive)
12 | COc1ccc(OC)c(NC(=O)c2nc(-c3ccccc3)oc2C)c1 | -2% (inactive)
13 | CCc1ccc(OCC(=O)Nc2ccc(N3CCN(C(=O)c4ccccc4)CC3)cc2)cc1 | -5% (inactive)
14 | Cc1cc(SCC(=O)Nc2ccc3[nH]c(=O)[nH]c3c2)nc2ccccc12 | 8%
